Laboratory results published in ChEMBL document CHEMBL1201862, “PubChem BioAssay data set” (2004).
The source made the active and inactive calls.

Tests used:
[1] = test system: H9c2; assay: cells; type: functional, cell-based; conditions: Rattus norvegicus, H9c2, Myocardium;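 also: confirmatory concentration-response retest of ultra-high-throughput screening hits for modulation of myocardial damage; cell death induced by hydrogen peroxide oxidative stress; compound pretreatment for 60 min then peroxide exposure for 2 h; potency is for protecting the cells against peroxide damage rather than for killing them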
[2] = molecular target: 5-hydroxytryptamine receptor 2A (Mus musculus, UniProt P35363); type: functional, cell-based;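 also: CHO-K1 cells with tagged receptor and beta-arrestin; agonist potency measured as compound-induced activation of the receptor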
[3] = molecular target: Mu-type opioid receptor (Homo sapiens, UniProt P35372); type: functional, cell-based;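 also: U2OS cells with beta-arrestin recruitment to OPRM1 by beta-gal complementation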
[4] = molecular target: Phospholipase A2 (Homo sapiens, UniProt P04054); type: functional;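 also: confirmatory dose-response counterscreen on phospholipase A2, testing hits that came from an ultra-high-throughput screen for ATG4B inhibitors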
[5] = molecular target: T1, Cysteine protease ATG4B (Homo sapiens, UniProt Q9Y4P1); type: functional;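 also: Fluorescence-based dose-response confirmation assay measuring inhibition of ATG4B activity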
T1 sequence (Q9Y4P1 whole entry): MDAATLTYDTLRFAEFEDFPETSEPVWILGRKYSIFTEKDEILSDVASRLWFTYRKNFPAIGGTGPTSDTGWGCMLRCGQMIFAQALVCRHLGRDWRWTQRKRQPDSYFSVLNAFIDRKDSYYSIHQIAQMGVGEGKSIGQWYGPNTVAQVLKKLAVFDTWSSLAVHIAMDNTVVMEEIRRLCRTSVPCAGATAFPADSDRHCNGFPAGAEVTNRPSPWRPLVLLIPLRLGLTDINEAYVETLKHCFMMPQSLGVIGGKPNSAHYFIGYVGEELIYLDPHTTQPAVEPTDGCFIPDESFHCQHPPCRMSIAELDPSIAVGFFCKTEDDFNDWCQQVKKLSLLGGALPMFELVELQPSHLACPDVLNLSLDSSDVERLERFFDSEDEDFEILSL

[6] = test system: Vero; assay: cells; type: functional; conditions: Chlorocebus sabaeus
[7] = test system: Streptococcus sp. 'group A'; assay: growth inhibition of control SK(-) GAS strain, dose response, counter-screen for streptokinase expression inhibitor project, luminescence, kanamycin, BacTiterGlo, confirmation (AID 1900); type: functional, organism-based
[8] = molecular target: T2, Streptokinase A (Streptococcus pyogenes serotype M1, UniProt P10520); assay: S. pyogenes streptokinase expression inhibitors, potency, dose response, plasminogen activation absorbance, OD405 (AID 1914); type: functional, Streptococcus pyogenes M1 GAS;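 also: secreted streptokinase activity via plasminogen activation per viability signal from cell pellet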
T2 sequence (P10520 whole entry): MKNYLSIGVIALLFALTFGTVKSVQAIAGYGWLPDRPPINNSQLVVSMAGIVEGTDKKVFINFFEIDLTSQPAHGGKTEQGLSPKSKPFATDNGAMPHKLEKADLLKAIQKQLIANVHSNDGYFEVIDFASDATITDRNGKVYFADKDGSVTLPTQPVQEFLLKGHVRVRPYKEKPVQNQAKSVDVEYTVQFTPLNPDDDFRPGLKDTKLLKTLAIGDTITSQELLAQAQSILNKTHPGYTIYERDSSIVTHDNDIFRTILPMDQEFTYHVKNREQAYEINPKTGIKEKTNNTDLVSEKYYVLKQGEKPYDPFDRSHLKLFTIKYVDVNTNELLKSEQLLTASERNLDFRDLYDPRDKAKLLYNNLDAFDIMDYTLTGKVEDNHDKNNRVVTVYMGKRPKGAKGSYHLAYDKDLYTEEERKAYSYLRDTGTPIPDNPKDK

[9] = test system: Streptococcus; assay: Group A Streptococcus viability loss, dose response, counter-screen for streptokinase expression inhibitor project, luminescence, BacTiterGlo (AID 1915); type: functional, organism-based;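 also: potency for reduction of bacterial viability or growth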
[10] = molecular target: Disintegrin and metalloproteinase domain-containing protein 17 (Homo sapiens, UniProt P78536); assay: ADAM17 protease inhibitors, dose response, counter-screen for ADAM10 exosite inhibitor project, biochemical, quenched FRET substrate (AID 743253)
[11] = microbe, parasite or virus in culture; type: functional; conditions: Mycobacterium tuberculosis
[12] = inhibitors of firefly luciferase expression or activity, dose response, H4 neuroglioma cells, luminescence (AID 1990); type: functional, cell-based
[13] = inhibitors of SNCA 5'UTR-driven reporter translation, confirmation, H4 neuroglioma cells, luminescence (AID 1988); type: functional, cell-based
[14] = test system: HEK293; assay: cells; conditions: Homo sapiens
[15] = test system: HEK293; assay: cells; conditions: Homo sapiens; remark: listed apart in the source
[16] = molecular target: T3, RNA-binding protein pos-1 (Caenorhabditis elegans, UniProt G5EF15); assay: inhibitors of POS-1/mex-3 RNA binding, dose response, biochemical, fluorescence polarization (AID 1964);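 also: purified POS-1 fused to maltose binding protein made in E. coli; potency of compounds blocking POS-1 binding to fluorescent RNA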
T3 sequence (G5EF15 whole entry): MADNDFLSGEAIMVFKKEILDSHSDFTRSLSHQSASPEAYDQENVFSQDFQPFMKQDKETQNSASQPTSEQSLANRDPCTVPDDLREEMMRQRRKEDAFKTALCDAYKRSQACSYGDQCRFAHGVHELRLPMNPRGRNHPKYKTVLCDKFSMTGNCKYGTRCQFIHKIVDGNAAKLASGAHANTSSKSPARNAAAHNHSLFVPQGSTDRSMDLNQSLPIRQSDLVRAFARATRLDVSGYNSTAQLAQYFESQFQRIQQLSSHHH

[17] = molecular target: T4, Zinc finger protein mex-5 (Caenorhabditis elegans, UniProt Q9XUB2); assay: MEX-5/TCR-2 RNA interaction inhibitors, dose response, biochemical, C. elegans, fluorescence polarization (AID 1960)
T4 sequence (Q9XUB2 whole entry): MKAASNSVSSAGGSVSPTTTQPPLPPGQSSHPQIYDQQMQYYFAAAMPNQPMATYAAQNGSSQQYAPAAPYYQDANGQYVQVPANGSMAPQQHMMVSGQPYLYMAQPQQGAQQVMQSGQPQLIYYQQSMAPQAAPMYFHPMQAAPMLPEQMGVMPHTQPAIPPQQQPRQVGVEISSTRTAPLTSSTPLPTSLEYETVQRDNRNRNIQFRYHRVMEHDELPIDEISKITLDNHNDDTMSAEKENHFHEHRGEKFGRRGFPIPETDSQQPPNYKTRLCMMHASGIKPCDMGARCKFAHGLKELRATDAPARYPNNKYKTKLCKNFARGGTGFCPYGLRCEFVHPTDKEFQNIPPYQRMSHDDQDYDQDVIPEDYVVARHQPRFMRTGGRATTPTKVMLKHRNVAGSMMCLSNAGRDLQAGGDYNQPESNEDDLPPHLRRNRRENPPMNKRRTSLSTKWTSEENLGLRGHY

[18] = molecular target: Cytochrome P450 2C9 (Homo sapiens, UniProt P11712)
[19] = molecular target: Paired box protein Pax-8 (Homo sapiens, UniProt Q06710); assay: inhibitors of PAX8-driven TPO luciferase reporter, dose response, RMG-I cells, cherry-pick (AID 687027); type: functional, cell-based;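 also: luciferase reporter driven by Pax8 target thyroperoxidase promoter measured by SteadyGlo luminescence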
[20] = molecular target: Heat shock protein HSP 90-alpha (Homo sapiens, UniProt P07900); type: functional, organism-based
[21] = molecular target: T5, Heat shock factor protein 1 (Mus musculus, UniProt P38532); assay: HSF1 potentiators in luciferase reporter cells, confirmation, cell-based, NIH3T3, luminescence, dose retest (AID 435004); type: functional;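 also: stress induced by proteasome inhibitor MG132 added 30 min after compound; luciferase reporter driven by HSF1 response element in NIH3T3 cells; actives raise luminescence as potentiators of the MG132 stress response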
T5 sequence (P38532 whole entry): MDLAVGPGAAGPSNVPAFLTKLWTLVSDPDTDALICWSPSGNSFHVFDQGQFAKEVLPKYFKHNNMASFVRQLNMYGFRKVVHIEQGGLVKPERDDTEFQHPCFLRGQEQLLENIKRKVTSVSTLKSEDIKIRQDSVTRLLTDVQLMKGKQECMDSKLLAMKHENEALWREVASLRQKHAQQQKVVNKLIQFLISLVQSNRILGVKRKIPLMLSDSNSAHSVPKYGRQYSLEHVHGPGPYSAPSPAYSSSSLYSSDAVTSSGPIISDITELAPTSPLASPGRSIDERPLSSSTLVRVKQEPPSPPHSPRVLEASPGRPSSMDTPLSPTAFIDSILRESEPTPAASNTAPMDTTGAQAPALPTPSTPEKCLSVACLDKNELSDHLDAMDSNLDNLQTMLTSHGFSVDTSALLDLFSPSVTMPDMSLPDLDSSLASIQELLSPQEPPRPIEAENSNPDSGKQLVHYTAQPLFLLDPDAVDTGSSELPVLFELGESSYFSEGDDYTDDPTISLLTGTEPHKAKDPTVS

[22] = molecular target: Albumin (Bos taurus, UniProt P02769); assay: Counterscreen for inhibitors of T-cell receptor (TCR)-CD3 interaction: Fluorescence-based biochemical high throughput dose response assay to identify inhibitors of T-cell receptor (TCR)-CD3 interaction using a TAMRA-labeled BSA probe.; type: functional
[23] = P. falciparum Dd2 growth inhibitors, dose response, SYBR Green, dry powder samples, set 9 (AID 1159568); type: functional, cell-based
[24] = molecular target: FAD-linked sulfhydryl oxidase ALR (Homo sapiens, UniProt P55789); assay: inhibitors of human ALR sulfhydryl oxidase, dose response, biochemical, H2O2 detection, luminescence, cherry-pick (AID 493248)
[25] = P. falciparum Dd2 growth inhibitors, dose response, SYBR Green, dry powder samples (AID 1159566); type: functional, cell-based;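 also: potency for growth inhibition with lower SYBR green DNA signal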
[26] = P. falciparum Dd2 growth inhibitors, dose response, SYBR Green, cherry-picked samples (AID 1159567); type: functional, cell-based
[27] = P. falciparum ATP4 D1247Y mutant growth inhibitors, dose response, NITD609-resistant line, SYBR Green, dry powder (AID 1159571); type: functional, cell-based;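 also: parasites synchronized at ring stage by sorbitol before testing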
[28] = P. falciparum 3D7-ScDHODH growth inhibitors, dose response, SYBR Green, dry powder samples (AID 1159570); type: functional, cell-based;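 also: parasite growth measured after 72 hours of compound exposure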

5-hydroxytryptamine receptor 2A, sequence (P35363 whole entry): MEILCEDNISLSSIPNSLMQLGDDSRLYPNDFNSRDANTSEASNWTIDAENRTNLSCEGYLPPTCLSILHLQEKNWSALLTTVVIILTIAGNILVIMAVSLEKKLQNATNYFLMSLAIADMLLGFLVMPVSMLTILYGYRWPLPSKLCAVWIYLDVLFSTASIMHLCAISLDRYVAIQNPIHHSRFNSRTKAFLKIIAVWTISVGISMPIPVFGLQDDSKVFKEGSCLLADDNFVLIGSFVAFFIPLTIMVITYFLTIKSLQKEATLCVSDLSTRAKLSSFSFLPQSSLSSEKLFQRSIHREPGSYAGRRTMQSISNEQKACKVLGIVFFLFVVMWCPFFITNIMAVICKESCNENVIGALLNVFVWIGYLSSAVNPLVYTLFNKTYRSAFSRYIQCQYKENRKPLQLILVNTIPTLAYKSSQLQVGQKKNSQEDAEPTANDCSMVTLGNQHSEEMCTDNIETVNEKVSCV
Phospholipase A2, sequence (P04054 whole entry): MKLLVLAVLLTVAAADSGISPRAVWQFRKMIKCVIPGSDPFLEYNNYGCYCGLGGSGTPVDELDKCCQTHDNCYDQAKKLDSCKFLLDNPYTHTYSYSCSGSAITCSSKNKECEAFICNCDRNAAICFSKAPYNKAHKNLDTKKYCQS
Disintegrin and metalloproteinase domain-containing protein 17, sequence (P78536 whole entry, the tested form may be a part): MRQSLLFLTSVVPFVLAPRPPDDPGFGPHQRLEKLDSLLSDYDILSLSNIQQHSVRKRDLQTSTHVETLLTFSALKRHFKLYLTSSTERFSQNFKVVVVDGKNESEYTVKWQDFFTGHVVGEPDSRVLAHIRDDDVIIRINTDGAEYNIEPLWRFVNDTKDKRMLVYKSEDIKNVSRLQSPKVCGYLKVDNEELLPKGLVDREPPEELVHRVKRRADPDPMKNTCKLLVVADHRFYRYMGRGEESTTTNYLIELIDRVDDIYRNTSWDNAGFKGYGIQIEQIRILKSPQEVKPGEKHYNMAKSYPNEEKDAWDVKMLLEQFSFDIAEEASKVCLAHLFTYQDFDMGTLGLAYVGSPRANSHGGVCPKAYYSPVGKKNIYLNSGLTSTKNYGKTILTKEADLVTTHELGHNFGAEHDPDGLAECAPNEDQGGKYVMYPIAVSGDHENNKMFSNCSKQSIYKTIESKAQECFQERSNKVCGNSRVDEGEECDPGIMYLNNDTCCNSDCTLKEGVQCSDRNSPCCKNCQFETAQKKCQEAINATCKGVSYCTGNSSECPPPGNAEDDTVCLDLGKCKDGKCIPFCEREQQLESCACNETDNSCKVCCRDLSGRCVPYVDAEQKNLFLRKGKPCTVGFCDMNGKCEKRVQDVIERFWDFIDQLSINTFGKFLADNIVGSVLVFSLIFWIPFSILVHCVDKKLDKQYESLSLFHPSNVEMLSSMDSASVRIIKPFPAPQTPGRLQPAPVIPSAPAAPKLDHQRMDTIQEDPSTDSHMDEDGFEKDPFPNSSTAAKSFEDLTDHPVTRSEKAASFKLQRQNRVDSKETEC
Mu-type opioid receptor, sequence (P35372 whole entry): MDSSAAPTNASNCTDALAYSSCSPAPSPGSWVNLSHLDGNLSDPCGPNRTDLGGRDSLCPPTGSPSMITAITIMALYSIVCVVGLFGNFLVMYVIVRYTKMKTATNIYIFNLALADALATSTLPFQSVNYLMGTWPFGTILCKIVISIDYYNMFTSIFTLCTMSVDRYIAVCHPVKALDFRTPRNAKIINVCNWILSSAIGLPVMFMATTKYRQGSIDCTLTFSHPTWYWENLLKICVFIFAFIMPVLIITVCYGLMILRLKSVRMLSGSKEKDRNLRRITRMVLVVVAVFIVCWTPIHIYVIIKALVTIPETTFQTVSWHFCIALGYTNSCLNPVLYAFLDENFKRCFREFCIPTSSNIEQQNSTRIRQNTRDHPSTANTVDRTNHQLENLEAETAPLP
Albumin, sequence (P02769 whole entry): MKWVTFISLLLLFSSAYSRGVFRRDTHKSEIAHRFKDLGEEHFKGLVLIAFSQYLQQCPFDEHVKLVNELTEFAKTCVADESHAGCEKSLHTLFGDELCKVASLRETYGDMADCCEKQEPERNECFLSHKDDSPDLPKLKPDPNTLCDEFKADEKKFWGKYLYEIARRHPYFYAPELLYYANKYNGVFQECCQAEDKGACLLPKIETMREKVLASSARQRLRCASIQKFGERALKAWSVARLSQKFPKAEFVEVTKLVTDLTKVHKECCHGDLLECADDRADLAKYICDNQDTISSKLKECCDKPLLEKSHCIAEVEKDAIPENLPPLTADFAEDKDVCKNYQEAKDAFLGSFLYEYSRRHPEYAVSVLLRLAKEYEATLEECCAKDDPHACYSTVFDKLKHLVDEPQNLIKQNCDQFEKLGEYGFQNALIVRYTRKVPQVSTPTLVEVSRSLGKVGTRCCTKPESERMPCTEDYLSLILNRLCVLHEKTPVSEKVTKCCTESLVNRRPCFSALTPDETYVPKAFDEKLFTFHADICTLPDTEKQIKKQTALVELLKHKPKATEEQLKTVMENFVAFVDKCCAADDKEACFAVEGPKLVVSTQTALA
Paired box protein Pax-8, sequence (Q06710 whole entry): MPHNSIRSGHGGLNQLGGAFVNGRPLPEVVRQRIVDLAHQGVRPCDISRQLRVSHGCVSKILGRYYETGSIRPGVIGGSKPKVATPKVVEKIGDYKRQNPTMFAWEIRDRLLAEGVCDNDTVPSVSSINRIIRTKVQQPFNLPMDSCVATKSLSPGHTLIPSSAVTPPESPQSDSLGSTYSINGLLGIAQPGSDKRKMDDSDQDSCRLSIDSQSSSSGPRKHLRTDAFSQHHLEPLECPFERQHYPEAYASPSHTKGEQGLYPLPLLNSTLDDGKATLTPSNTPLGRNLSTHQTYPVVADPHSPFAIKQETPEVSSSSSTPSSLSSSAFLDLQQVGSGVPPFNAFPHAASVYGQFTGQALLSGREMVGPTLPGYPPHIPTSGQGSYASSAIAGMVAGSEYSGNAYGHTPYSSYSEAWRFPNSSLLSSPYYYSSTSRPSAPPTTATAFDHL
FAD-linked sulfhydryl oxidase ALR, sequence (P55789 whole entry): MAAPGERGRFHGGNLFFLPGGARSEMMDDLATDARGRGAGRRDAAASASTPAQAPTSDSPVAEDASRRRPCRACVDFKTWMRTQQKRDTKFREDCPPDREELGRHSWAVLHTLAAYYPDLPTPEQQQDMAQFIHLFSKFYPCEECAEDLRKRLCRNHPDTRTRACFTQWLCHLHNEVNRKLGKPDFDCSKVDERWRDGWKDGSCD
Cytochrome P450 2C9, sequence (P11712 whole entry): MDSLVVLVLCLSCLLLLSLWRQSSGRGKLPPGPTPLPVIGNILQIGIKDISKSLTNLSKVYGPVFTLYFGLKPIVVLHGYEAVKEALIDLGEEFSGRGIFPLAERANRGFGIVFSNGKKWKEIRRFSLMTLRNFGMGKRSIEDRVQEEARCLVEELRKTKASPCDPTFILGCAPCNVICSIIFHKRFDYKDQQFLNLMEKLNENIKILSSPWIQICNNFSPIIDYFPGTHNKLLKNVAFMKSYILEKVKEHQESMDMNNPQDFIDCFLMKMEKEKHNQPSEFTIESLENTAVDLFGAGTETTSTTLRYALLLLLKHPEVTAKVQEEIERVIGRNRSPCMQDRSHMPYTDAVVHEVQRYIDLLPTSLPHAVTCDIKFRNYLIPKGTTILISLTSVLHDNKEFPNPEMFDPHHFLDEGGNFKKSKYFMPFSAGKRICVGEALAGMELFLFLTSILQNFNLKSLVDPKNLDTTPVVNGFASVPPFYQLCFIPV

CCNC(=O)/C(C#N)=C/c1c(N(Cc2ccccc2)Cc2ccccc2)nc2ccccn2c1=O
IC50 [1]: > 79 µM (inactive)

COc1cc(CN2CCN(c3ncccn3)CC2)cc(OC)c1
EC50 [2]: 0.384 µM (active) | EC50 [3]: 92.4 µM (inactive)

COc1cc(OC)cc(-c2nc3ccccc3c(=O)n2OC(=O)c2ccc(Br)cc2)c1
IC50 [4]: 4.74 µM (active) | IC50 [5]: 2.51 µM (active)

O=[N+]([O-])c1cc(S(=O)(=O)Nc2ccccc2)ccc1N1CCN(c2ccccc2)CC1
CC50 [6]: 13.5 µM (active) | EC50 [7]: 16.2 µM (active) | EC50 [8]: 23.9 µM (active) | EC50 [9]: > 150 µM (not active) | IC50 [10]: > 69.5 µM (inactive)

COc1ccc(-c2nnc3sc(C4CCCCC4)nn23)cc1OC
CC50 [11]: > 40 µM (active) | EC50 [12]: 58.6 µM (active) | EC50 [13]: 25.6 µM (active) | EC50 [14]: > 59.7 µM (inactive) | EC50 [15]: > 59.7 µM (inactive)

Cn1cc(C2=C(c3ccc(Cl)cc3Cl)C(=O)NC2=O)c2ccccc21 [SB-216763]
EC50 [14]: > 59.6 µM (inactive) | EC50 [15]: > 59.6 µM (inactive) | EC50 [16]: 26 µM (active) | EC50 [17]: 21.5 µM (inconclusive) | AC50 [18]: 31.6 µM (inconclusive) | AC50 [19]: 4.61 µM (active)

COc1ccc(-c2cc(CNS(=O)(=O)c3ccc(NC(C)=O)cc3)on2)cc1
CC50 [6]: > 25 µM (active)

Cc1cc(NS(=O)(=O)c2ccc(Nc3nc(-c4ccc(C)c(C)c4)cs3)cc2)no1
IC50 [4]: 11.9 µM (active) | IC50 [5]: 13.1 µM (active)

O=C(NNC(=O)c1cc(-c2ccccc2)nc2ccccc12)Nc1cccc(Cl)c1
EC50 [7]: 3.9 µM (active) | EC50 [8]: 22.4 µM (active) | EC50 [9]: 40.2 µM (active) | IC50 [10]: > 69.5 µM (inactive)

Cc1cccc(NC(=O)COc2cccc3c2CCNC3=O)c1
IC50 [1]: > 79 µM (inactive)

Cc1ccccc1CN1CCN(C(=O)c2ccco2)CC1
EC50 [2]: 4.89 µM (active) | EC50 [3]: 92.5 µM (inactive)

CCOC(=O)c1c(C)nc2sc3c(=O)n(-c4ccc(C(C)=O)cc4)cnc3c2c1-c1ccc(OC)cc1
IC50 [1]: > 79 µM (inactive)

c1ccc(COc2ccc(CN3CCN(c4ccccn4)CC3)cc2)cc1
EC50 [2]: 0.054 µM (active) | EC50 [3]: 92.5 µM (inactive)

O=C(N/N=C/c1ccccn1)c1cc(-c2ccc(Br)cc2)nc2ccccc12
CC50 [6]: 9.94 µM (active) | AC50 [20]: 2.24 µM (active) | EC50 [21]: 4.85 µM (active)

COc1ccc(-c2cnnn2-c2ccc(NC(=O)c3ccc(S(=O)(=O)N4CCCCC4)cc3)cc2)cc1OC
IC50 [22]: > 94.1 µM (inactive)

COc1ccc([C@H]2C/C=C/C[C@H](C)Oc3ccccc3C(=O)N(C)[C@@H](Cc3ccccc3)C(=O)N2)c(OC)c1.COc1ccc([C@H]2C/C=C\C[C@H](C)Oc3ccccc3C(=O)N(C)[C@@H](Cc3ccccc3)C(=O)N2)c(OC)c1
AC50 [23]: 1.58 µM (active)

COc1ccc(N(CC(=O)Nc2cccc(C(C)=O)c2)S(=O)(=O)c2ccc(NC(C)=O)cc2)cc1
IC50 [1]: > 79 µM (inactive)

CC(C)c1ccc(NC2CCCN(C(=O)CCN3Cc4ccccc4C3=O)C2)cc1 (configuration not stated)
IC50 [4]: 7.98 µM (active) | AC50 [24]: 4.43 µM (active) | IC50 [5]: 15.5 µM (active)

C[C@@H]1CCCCO[C@H](CN(C)S(=O)(=O)c2ccc(F)cc2)[C@H](C)CN([C@H](C)CO)C(=O)c2cc(N(C)C)ccc2O1
AC50 [23]: 4.45 µM (active)

CS(=O)(=O)N1[C@H](C#N)[C@H](c2ccc(C#Cc3cccc(F)c3)cc2)[C@H]1CO
AC50 [23]: 10.1 µM (active)

COC(=O)c1ccc(N2CCC(c3cc(-c4ccc(OC)cc4)n[nH]3)CC2)c([N+](=O)[O-])c1
EC50 [8]: > 150 µM (not active) | IC50 [10]: > 69.5 µM (inactive)

C[C@@H]1CN([C@H](C)CO)C(=O)c2cccc(NC(=O)c3nc4ccccc4s3)c2O[C@H]1CN(C)C(=O)Nc1ccc(C(F)(F)F)cc1
AC50 [25]: 1.08 µM (active) | AC50 [26]: 2.06 µM (active) | AC50 [27]: 0.816 µM (active) | AC50 [28]: 1.18 µM (active)

Cc1ccc(O)c(/C=N/NC(=O)COc2ccc3c(C)cc(=O)oc3c2)c1
IC50 [22]: > 94.1 µM (inactive)
